Measured values published in patent US20250382280A1, “PYRAZOLE DERIVATIVES FOR THE INHIBITION OF PHAGOCYTOSIS” (Canadian Blood Services, priority 2022, published 2025).
Like-named read-outs stand apart in the source and are kept apart here.

Columns and labels:
[1] = system: phagocytosis of anti-D-opsonized Rh(D+) red cells by monocytes; test: monocyte monolayer assay (MMA), in vitro phagocytosis assay; format: cell-based, human; parameters: key to Phagocytic index (PI): number of phagocytosed RBCs per 100 monocytes; conditions: for Phagocytic index (PI): PI = (# of phagocytic red blood cells)/(300 monocytes) * 100; for IC50 / EC50: dose-inhibitory response; for IC50: 0.5-100 μM, read-out: IC50 for inhibition of phagocytosis; for effect on IVIg dose-response curve (cooperation/synergy with IVIg): compound added at its IC50 concentration to each IVIg concentration
Description: The MMA to screen compounds for their ability to inhibit phagocytosis was performed as previously described (Purohit, M. K. et al., Bioorg. Med. Chem. Lett. 2013; 23:2324-7; and Purohit, M. K. et al., Bioorg. Med. Chem. 2014; 22:2739-52.). Briefly, Mononuclear cells (PBMCs) were layered onto chamber slides and monocytes purified by adherence after 1 hr at 37° C. with 5% CO2. Drugs were solubilized in 100% DMSO and then diluted in Roswell Park Memorial Institute (RPMI) to the final concentration of 5 μM, as previously reported (8,9). Corresponding dimethyl sulfoxide (DMSO) volumes in RPMI medium were used as a control. After one hour, indicator Rh-positive red cells opsonized with anti-RhD were added to the chamber slides and then further incubated for 2 hours before fixing and counting phagocytosed red blood cells (RBCs) using phase-contrast microscopy. As a positive control for inhibition, Intravenous immunoglobulin (IVIg) was used, known to inhibit phagocytosis due to blocking of FcγRs. The phagocytosis index (PI) was determined as the number of phagocytosed RBCs in 100 monocytes. The percent inhibition of phagocytosis was determined by comparing the PI in each treated sample to the PI in the untreated sample, which was determined by normalizing the PI concentration in each treated sample (phagocytosis of opsonized RBCs with vehicle only, representing 100 percent phagocytosis.
Concentrations included 100 μM, 50 μM, 25 μM, 10 μM, 5 μM, 2.5 μM, 1 μM, and 0.5 μM.
The 80 selected pyrazole core compounds were screened using a concentration of 5 μM in the in vitro phagocytosis assay, referred to as the monocyte monolayer assay (MMA). Compounds were compared to a standard intravenous immunoglobulin (IVIg) at a concentration of 1 mg/mL.

PBMC, HEPG2, and HEK-293 [2] = test: LDH assay at higher concentrations (up to 250 μM); format: cell-based; conditions: PBMCs, HEPG2, HEK293
Description: (§1) Cell lines (HepG2, liver-derived, HB-8065™; HEK293, kidney-derived cell line, CRL-1573™) were purchased from the ATCC. Both cell lines were cultured in Eagle's Minimum Essential Medium supplemented with 10% fetal calf serum.
(§2) To further determine the potential for toxicity of compounds KB-151 and KB-208, additional toxicity studies were done using higher concentrations, up to 250 μM of each compound, using LDH and MTT (FIGS. 4A-4D), and an apoptosis assay (Annexin V/PI) (FIGS. 5A-5C).

PBMC, HEPG2, and HEK-293 [3] = test: MTT assay at higher concentrations (up to 250 μM); format: cell-based, human; conditions: PBMCs, HEPG2, HEK293
Description: as §1, §2

PBMC, HEPG2, and HEK-293 [4] = test: apoptosis assay (Annexin V/PI); format: cell-based, human; conditions: 250 μM, 1 hour; PBMCs, HEPG2, HEK293
Description: PBMC, HEPG2, and HEK-293 cells were treated for 1 hour with the compound KB-151 or the compound KB-208 at a 250 μM concentration. 100 μM thimerosal was used as a positive control for viability (diluted in RPMI). Staining with Annexin V and PI was performed according to the manufacturer's procedure for the Annexin-V-FLUOS Staining Kit (Sigma) and samples were run through an SP6800 Spectral Cytometer.
as §2

ITP mice model = test: anti-CD41 antibody ITP mouse model (platelet count); format: in vivo; conditions: Balb/c, day 4 after two treatment doses on days 2 and 3, 100 μM s.c. twice a day, vs CD-41 group (*P≤0.05)
Description: An in vivo phagocytosis inhibition assay was performed with KB-151 in a mouse model, Balb/c animals (FIG. 6A and FIG. 6B). A dose of 100 μM of KB-151 was injected to 20.5 g mice at 500 μL based on the following calculations:
A dose-escalation anti-CD41 antibody ITP mouse model was used.
(§3) The efficacy of KB-151 and KB-208 at diminishing the platelet level was assessed in three ITP mice models: C57BL/6 (FIG. 7), Balb/c (FIGS. 8A-8B), and CD1 (FIG. 9). […] The toxicity was also assessed using the Balb/c model.

[5] = 60-day toxicity in Balb/c mice (blood biochemistry, histopathology); format: in vivo; conditions: after 60 days of treatment
Description: as §3

[6] = system: attachment of antibody-opsonized RBCs to FcγRs on monocytes; test: room temperature RBC rosette assay (binding of anti-D opsonized RBCs to monocytes); format: cell-based; conditions: 100 μM
Text: Fluorescent dye-labelled RBCs opsonized with anti-D were used to study the mechanism of phagocytosis inhibition using a room temperature assay to look for RBC rosettes (attachment of antibody-opsonized RBCs' to FcγRs) in the presence of monocytes. IVIg was used as the positive control and no treatment as the negative control. In the negative control, monocytes bound to the RBC and initiated phagocytosis (FIGS. 11A and 11E).

[7] = system: FcγRI (CD64), FcγRII (CD32), and FcγRIII (CD16); test: FcγR expression on monocytes with monoclonal antibodies; format: cell-based; conditions: monocytes untreated or treated
Description: Due to observing similar results as IVIG, the binding of KB-208 and KB-151 to FcγR was evaluated to determine the attachment between KB-208 or KB-151 and FcγR. Three monoclonal antibodies each specific for FcγRI (CD64), FcγRII (CD32), and FcγRIII (CD16) were used to test the resulting expression of FcγRI, FcγRII and FcγRIII.

HSP27 = test: signal transduction study, phosphorylated HSP27 level; format: cell-based; conditions: no RBC, un-opsonized RBC
Text: (§4) The mechanism of action of KB-208 and KB-151 was investigated further to evaluate the effects on signal transduction. Many kinases were studied including Akt1/2/3 (T308), Akt1/2/3 (S473), CREB, EGF R1 eNOS, ERK1/2, Chk-2, c-Jun, Fgr, GSK-3a/p, GSK-3p, HSP27, p53 (S15), p53 (S46), p53 (S392), JNK 1/2/3, Lck, Lyn, MSK1/2, p70 S6 kinase (T389), p70 S6 kinase (T421/S424), PRAS40, p38a, PDGF RP, PLC-γ1, Src, PYK2, RSK1/2, RSK1/2/3, STAT2, STAT5a/b, WNK1, Yes, STAT1, STAT3 (Y705), STAT3 (S727), β-catenin, STAT6, and HSP60. […] It was then confirmed that KB-208 and KB-151 activate PP2A (in other words they increase its phosphatase activity) (FIG. 14). PP2A is a serine phosphatase that dephosphorylates HSP27. Deregulation of HSP27 also occurs in diseases other than immune cytopenias for example prostate cancer, colorectal cancer, and breast cancer.

PP2A = PP2A phosphatase activity; format: biochemical
Text: as §4

[8] = Homo sapiens, Monocyte, 5 μM compound, screening of the 80 compounds, read-out: Average inhibition (% ± standard deviation)
[9] = Homo sapiens, Monocyte, 5 μM, anti-D-opsonized Rh(D+) red cells, read-out: Inhibition percentage

Row | SMILES | Phagocytic index (PI) ([1]; 5 μM) | IC50 ([1]; Homo sapiens, Monocyte) [µM] | inhibition at 5 µM [1, 8] [%] | inhibition at 5 µM [1, 9] [%] | EC50 ([1]; Homo sapiens, Monocyte, unit inferred) [µM] | effect on IVIg dose-response curve (cooperation/synergy with IVIg) [1] | IC50 [1] [µM] | toxicity by LDH (PBMC, HEPG2, and HEK-293 [2]) | toxicity by MTT (PBMC, HEPG2, and HEK-293 [3]) | toxicity by apoptosis assay (Annexin V/PI) (PBMC, HEPG2, and HEK-293 [4]) | platelet (PLT) count (ITP mice model) | histopathology of liver, heart, spleen, lymph nodes, and kidney [5] | toxicity (blood biochemistry) [5] | binding of monocytes to anti-D opsonized RBCs and phagocytosis [6] | binding to Fcγ receptors (FcγRI, FcγRII, FcγRIII expression on monocytes) [7] | effect on HSP27 phosphorylation (HSP27) | PP2A phosphatase activity (PP2A) | EC50 ([1]; Homo sapiens, Monocyte) [µM]
1 | CCOC(=O)c1nn(-c2ccccc2)c(C#N)c1NC(=O)c1nn(CC)cc1Br [KB-151] | 17 | 2.71 ± 0.786 | 80 ± 3.68 | 80 | 8 ± 4 | no effect | 3 | low to no toxicity | low to no toxicity | low to no toxicity | significant increase | showed abnormalities nor any toxicity | Minimal toxicity | inhibit the binding and inhibit phagocytosis similarly to IVIg | independent of binding the three tested Fcγ receptors | dephosphorylate HSP27 | activate PP2A | 
2 | COC(=O)CC1CCN(C(=O)c2cc(-c3cccs3)nn2-c2ccccc2)CC1 [KB-208] | 7 | 4.21 ± 1.24 | 81 ± 3.43 | 81 |  | no effect | 4 | low to no toxicity | low to no toxicity | low to no toxicity |  |  |  | inhibit the binding and inhibit phagocytosis similarly to IVIg | independent of binding the three tested Fcγ receptors | dephosphorylate HSP27 | activate PP2A | 5 ± 0.2
3 | O=C(Nc1nccs1)c1cnn(-c2ccccc2)c1-n1cccc1 [KB-210] | 11 | 22.1 | 69 ± 5.32 | 69 |  |  |  |  |  |  |  |  |  |  |  |  |  | > 10
4 | FC(F)(F)c1cc(-c2cccs2)nc(-n2nc(C(F)(F)F)c3c2CCC3)n1 [KB-211] |  |  | 33 ± 2.31 |  |  |  |  |  |  |  |  |  |  |  |  |  |  | 
5 | CSc1cccc(NC(=O)c2cnn(C)c2-n2cccc2)c1 [KB-212] | 19 |  | 47 ± 9.67 | 47 |  |  |  |  |  |  |  |  |  |  |  |  |  | 
6 | COc1ccc(-c2cc(C(=O)NCCc3c[nH]c4ccccc34)[nH]n2)cc1 [KB-213] | 13 |  | 64 ± 8.74 | 64 |  |  |  |  |  |  |  |  |  |  |  |  |  | 
